Test system: tobacco budworm (Heliothis virescens [Fabricius])
Experiment: surface-treated diet test, insecticidal activity against tobacco budworm
Assay type: in vivo
Settings: 0.25 millimoles of candidate insecticide on the surface of the diet, second instar larvae, five-day exposure; for Percent Mortality: compared to total number of insects infested; for Percent Growth Inhibition: inhibition of insect weight relative to untreated controls
Method in brief: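 Second-instar larvae (~5 mg) were held five days at 25° C and 60% RH on artificial diet whose surface carried dried compound (0.25 millimolar standard rate; DMSO serial dilutions for rate series, six replicates each). Readouts: mortality and weight inhibition relative to DMSO-treated controls.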

Row | Compound | Percent Mortality | Percent Growth Inhibition
1 | O=S(=O)([O-])CCCO.OC1(C(c2ccc(OC(F)(F)F)cc2)c2ccc(OC(F)(F)F)cc2)CC[N+](O)(Cc2ccc(Oc3ccccn3)cc2)CC1 (centres unmarked) [Compound 500] | 100% | 100%
2 | CON=C(Cl)c1ccc(C[N+]2(O)CCC(O)(C(c3ccc(OC(F)(F)F)cc3)c3ccc(OC(F)(F)F)cc3)CC2)cc1.O=C(O)CC(O)(CC(=O)O)C(=O)[O-] (centres unmarked) [Compound 501] | 100% | 100%
3 | O=C([O-])C1CCCCC1.OC1(C(c2ccc(OC(F)(F)F)cc2)c2ccc(OC(F)(F)F)cc2)CC[N+](O)(Cc2ccc(Oc3ccccn3)cc2)CC1 (centres unmarked) [Compound 502] | 100% | 100%
4 | CCOC(C)C(=O)[O-].OC1(C(c2ccc(OC(F)(F)F)cc2)c2ccc(OC(F)(F)F)cc2)CC[N+](O)(Cc2ccc(Oc3ccccn3)cc2)CC1 (centres unmarked) [Compound 503] | 100% | 100%
5 | O=C(O)CC(O)(CC(=O)O)C(=O)[O-].OC1(C(c2ccc(OC(F)(F)F)cc2)c2ccc(OC(F)(F)F)cc2)CC[N+](O)(Cc2ccc(Oc3ccccn3)cc2)CC1 (centres unmarked) [Compound 504] | 100% | 100%
6 | CC1(C)[C@@H]2CCC1(CS(=O)(=O)[O-])C(=O)C2.OC1(C(c2ccc(OC(F)(F)F)cc2)c2ccc(OC(F)(F)F)cc2)CC[N+](O)(Cc2ccc(Oc3ccccn3)cc2)CC1 (centres unmarked) [Compound 505] | 100% | 100%
7 | CCS(=O)(=O)[O-].OC1(C(c2ccc(OC(F)(F)F)cc2)c2ccc(OC(F)(F)F)cc2)CC[N+](O)(Cc2ccc(Oc3ccccn3)cc2)CC1 (centres unmarked) [Compound 506] | 100% | 100%
8 | CC1(C)[C@@H]2CCC1(CS(=O)(=O)[O-])C(=O)C2.CCON=Cc1ccc(C[N+]2(O)CCC(O)(C(c3ccc(OC(F)(F)F)cc3)c3ccc(OC(F)(F)F)cc3)CC2)cc1 (centres unmarked) [Compound 507] | 100% | 100%
9 | O=S(=O)([O-])C(F)(F)C(F)(F)C(F)(F)C(F)(F)F.OC1(C(c2ccc(OC(F)(F)F)cc2)c2ccc(OC(F)(F)F)cc2)CC[N+](O)(Cc2ccc(Oc3ccccn3)cc2)CC1 (centres unmarked) [Compound 508] | 100% | 100%
10 | CC(C)=CCCC(C)CC(=O)[O-].OC1(C(c2ccc(OC(F)(F)F)cc2)c2ccc(OC(F)(F)F)cc2)CC[N+](O)(Cc2ccc(Oc3ccccn3)cc2)CC1 (centres unmarked) [Compound 509] | 100% | 100%
11 | O=C([O-])CO.OC1(C(c2ccc(OC(F)(F)F)cc2)c2ccc(OC(F)(F)F)cc2)CC[N+](O)(Cc2ccc(Oc3ccccn3)cc2)CC1 (centres unmarked) [Compound 510] | 100% | 100%
12 | O=C([O-])C12CC3CC(CC(C3)C1)C2.OC1(C(c2ccc(OC(F)(F)F)cc2)c2ccc(OC(F)(F)F)cc2)CC[N+](O)(Cc2ccc(Oc3ccccn3)cc2)CC1 (centres unmarked) [Compound 511] | 100% | 100%
13 | O=C([O-])CCCC(=O)O.OC1(C(c2ccc(OC(F)(F)F)cc2)c2ccc(OC(F)(F)F)cc2)CC[N+](O)(Cc2ccc(Oc3ccccn3)cc2)CC1 (centres unmarked) [Compound 512] | 100% | 100%
14 | CCCCCCCC/C=C/CCCCCCCC(=O)[O-].OC1(C(c2ccc(OC(F)(F)F)cc2)c2ccc(OC(F)(F)F)cc2)CC[N+](O)(Cc2ccc(Oc3ccccn3)cc2)CC1 (centres unmarked) [Compound 513] | 100% | 100%
15 | O=C([O-])CCCCCC(=O)O.OC1(C(c2ccc(OC(F)(F)F)cc2)c2ccc(OC(F)(F)F)cc2)CC[N+](O)(Cc2ccc(Oc3ccccn3)cc2)CC1 (centres unmarked) [Compound 514] | 100% | 100%
16 | CCCCCCCCCCCCc1ccc(S(=O)(=O)[O-])cc1.OC1(C(c2ccc(OC(F)(F)F)cc2)c2ccc(OC(F)(F)F)cc2)CC[N+](O)(Cc2ccc(Oc3ccccn3)cc2)CC1 (centres unmarked) [Compound 515] | 100% | 100%
17 | O=C([O-])CCCCC(=O)O.OC1(C(c2ccc(OC(F)(F)F)cc2)c2ccc(OC(F)(F)F)cc2)CC[N+](O)(Cc2ccc(Oc3ccccn3)cc2)CC1 (centres unmarked) [Compound 516] | 100% | 100%
18 | CCCCCCCC(=O)[O-].OC1(C(c2ccc(OC(F)(F)F)cc2)c2ccc(OC(F)(F)F)cc2)CC[N+](O)(Cc2ccc(Oc3ccccn3)cc2)CC1 (centres unmarked) [Compound 517] | 100% | 100%
19 | CCS(=O)(=O)[O-].OC1(C(c2ccc(C(F)(F)F)cc2)c2ccc(C(F)(F)F)cc2)CC[N+](O)(Cc2ccc(Oc3ccc(Cl)nn3)cc2)CC1 (centres unmarked) [Compound 518] | 100% | 100%
20 | O=S(=O)([O-])C(F)(F)C(F)(F)C(F)(F)C(F)(F)C(F)(F)C(F)(F)C(F)(F)C(F)(F)C(F)(F)F.OC1(C(c2ccc(C(F)(F)F)cc2)c2ccc(C(F)(F)F)cc2)CC[N+](O)(Cc2ccc(Oc3ccc(Cl)nn3)cc2)CC1 (centres unmarked) [Compound 520] | 100% | 100%
21 | CC(C)OC(=O)Nc1ccc(C[N+]2(Cc3ccc(NC(=O)OC(C)C)cc3)CCC(O)(C(O)(c3ccc(OC(F)(F)F)cc3)c3ccc(OC(F)(F)F)cc3)CC2)cc1.[Cl-] [Compound 521] | 50% | 100%
22 | Cl.OC1(C(c2ccc(OC(F)(F)F)cc2)c2ccc(OC(F)(F)F)cc2)CCN(Cc2ccc(Oc3ccccn3)cc2)CC1 [Compound 522] | 100% | 100%

Source: patent publication US8119563B2, “N-substituted azacycles” (FMC Corporation, priority 2003, dated 2012)
